Results taken from patent US12441725B2, “ISO-citrate dehydrogenase (IDH) inhibitor” (ZHEJIANG METON PHARMACEUTICAL CO., LTD, priority 2019, dated 2025).

How the values were obtained:
IDH1 R132H = biological target: T1, IDH1 R132H (Homo sapiens, UniProt O75874, R132H); experiment: Biochemical assay for IDH inhibition (NADPH fluorescence), mutant IDH1 R132H; details: 50 nM IDH1-R132H, 1 hour pre-incubation, in triplet
T1 construct: 6xHis
Outline: (§1)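 Mutant enzyme (25 nM R132C or 50 nM R132H) was preincubated 1 h at room temperature with compound in pH 7.5 Tris buffer containing 1.33 mM α-KG, and the reaction was then started with NADPH (80 μM solution). NADPH consumption was followed by fluorescence (Ex 340/Em 460 nm) for 15 min. IC50 was derived from background-corrected linear rates relative to vehicle, run in triplicate.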

[1] = biological target: T2, IDH (endogenous IDH1 R132C) in HT1080 cell (Homo sapiens, UniProt O75874, R132C); experiment: Cell-based assay for IDH inhibition (decrease of D-2-HG) in HT1080 cells; details: human fibrosarcoma cell line HT1080, 16 hours treatment, D-2-HG by LC-MS, in triplet
T2 construct: which harbor endogenous heterozygous IDH1 R132C and R132H mutation respectively and accumulate D-2-HG
Outline: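 HT1080 cells with endogenous IDH1 R132C, grown in DMEM/10% FBS, treated with compound at several concentrations for 16 h. Metabolites extracted in cold 40% methanol/40% acetonitrile and D-2-HG measured by HILIC LC-MS/MS, normalized to glutamate. IC50 from D-2-HG relative to DMSO controls; run in triplicate.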

IDH1 R132C = biological target: T3, IDH1 R132C (Homo sapiens, UniProt O75874, R132C); experiment: Biochemical assay for IDH inhibition (NADPH fluorescence), mutant IDH1 R132C; details: 25 nM IDH1-R132C, 1 hour pre-incubation, in triplet
T3 construct: 6xHis
Outline: as §1

T2 sequence (O75874 2-414 R132C): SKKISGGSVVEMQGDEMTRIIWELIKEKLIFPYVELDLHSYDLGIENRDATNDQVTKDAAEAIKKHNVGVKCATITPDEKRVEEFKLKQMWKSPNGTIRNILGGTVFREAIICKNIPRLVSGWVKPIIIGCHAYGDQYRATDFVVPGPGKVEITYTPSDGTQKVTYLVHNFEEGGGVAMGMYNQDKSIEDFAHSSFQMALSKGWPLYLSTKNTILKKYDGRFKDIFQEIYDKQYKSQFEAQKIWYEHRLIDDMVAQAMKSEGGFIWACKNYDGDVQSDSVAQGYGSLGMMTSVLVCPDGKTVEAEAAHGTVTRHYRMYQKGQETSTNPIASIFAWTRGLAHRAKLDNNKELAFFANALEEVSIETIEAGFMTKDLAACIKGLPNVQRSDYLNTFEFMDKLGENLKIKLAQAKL
T3 sequence (O75874 whole entry R132C): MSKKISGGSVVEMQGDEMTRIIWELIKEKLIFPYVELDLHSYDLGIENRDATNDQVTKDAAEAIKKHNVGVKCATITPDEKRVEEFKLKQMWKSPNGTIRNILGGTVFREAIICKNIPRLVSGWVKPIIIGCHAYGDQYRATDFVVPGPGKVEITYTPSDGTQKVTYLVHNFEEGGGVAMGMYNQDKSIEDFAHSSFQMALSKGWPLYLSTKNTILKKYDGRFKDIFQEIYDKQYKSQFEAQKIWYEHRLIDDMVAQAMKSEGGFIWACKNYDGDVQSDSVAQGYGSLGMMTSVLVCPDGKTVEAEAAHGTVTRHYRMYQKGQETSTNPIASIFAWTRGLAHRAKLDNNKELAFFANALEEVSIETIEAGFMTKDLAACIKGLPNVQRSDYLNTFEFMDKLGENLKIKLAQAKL
T1 sequence (O75874 whole entry R132H): as the sequence (O75874 whole entry R132C) above, with C132H counted along it

SMILES	IC50 (IDH1 R132H) [nM]	IC50 [1] [nM]	IC50 (IDH1 R132C) [nM]
CCN1Cc2c(ccnc2N[C@@H](C)c2cc(F)c(-c3ccnc(-c4ccccc4)c3)cc2F)C1=O [Compound 98, (S)-4-((1-(2,5-difluoro-4-(2-phenylpyridin-4-yl)phenyl)ethyl)amino)-2-ethyl-2,3-dihydro-1H-pyrrolo[3,4-c]pyridin-1-one]	500 to 1000	100 to 500	> 1000
CCN1Cc2c(ccnc2N[C@@H](C)c2cc(F)c(-c3ccnc(-c4cccnc4)c3)cc2F)C1=O [Compound 99, (S)-4-((1-(4-([2,3′-bipyridin]-4-yl)-2,5-difluorophenyl)ethyl)amino)-2-ethyl-2,3-dihydro-1H-pyrrolo[3,4-c]pyridin-1-one]	> 1000	500 to 1000	> 1000
CCN1Cc2c(ccnc2N[C@@H](C)c2cc(F)c(-c3ccnc(-c4cncc(Cl)c4)c3)cc2F)C1=O [Compound 100, (S)-4-((1-(4-(5′-chloro-[2,3′-bipyridin]-4-yl)-2,5-difluorophenyl)ethyl)amino)-2-ethyl-2,3-dihydro-1H-pyrrolo[3,4-c]pyridin-1-one]	100 to 500	100 to 500	500 to 1000
CCN1Cc2c(ccnc2N[C@@H](C)c2cc(F)c(-c3ccnc(C(C)(C)O)c3)cc2F)C1=O [Compound 103, (S)-4-((1-(2,5-difluoro-4-(2-(2-hydroxypropan-2-yl)pyridin-4-yl)phenyl)ethyl)amino)-2-ethyl-2,3-dihydro-1H-pyrrolo[3,4-c]pyridin-1-one]	> 1000	> 1000	> 1000
CCN1Cc2c(ccnc2N[C@@H](C)c2cc(F)c(-c3ccnc(C(C)(F)F)c3)cc2F)C1=O [Compound 106, (S)-4-((1-(4-(2-(1,1-difluoroethyl)pyridin-4-yl)-2,5-difluorophenyl)ethyl)amino)-2-ethyl-2,3-dihydro-1H-pyrrolo[3,4-c]pyridin-1-one]	100 to 500	100 to 500	100 to 500
CCN1Cc2c(ccnc2N[C@@H](C)c2cc(F)c(-c3ccnc(C(F)(F)C(F)(F)F)c3)cc2F)C1=O [Compound 107, (S)-4-((1-(2,5-difluoro-4-(2-(perfluoroethyl)pyridin-4-yl)phenyl)ethyl)amino)-2-ethyl-2,3-dihydro-1H-pyrrolo[3,4-c]pyridin-1-one]	< 100	100 to 500	< 100

Next, values leading:

IC50 (IDH1 R132H) [nM]	IC50 [1] [nM]	IC50 (IDH1 R132C) [nM]	SMILES
< 100	100 to 500	100 to 500	CCN1Cc2c(ccnc2N[C@@H](C)c2cc(F)c(-c3ccnc(C4CCCC4)c3)cc2F)C1=O [Compound 101, (S)-4-((1-(4-(2-cyclopentylpyridin-4-yl)-2,5-difluorophenyl)ethyl)amino)-2-ethyl-2,3-dihydro-1H-pyrrolo[3,4-c]pyridin-1-one]
< 100	100 to 500	100 to 500	CCN1Cc2c(ccnc2N[C@@H](C)c2cc(F)c(-c3ccnc(C(C)(C)F)c3)cc2F)C1=O [Compound 102, 4-[[(1S)-1-[2,5-difluoro-4-[2-(1-fluoro-1-methyl-ethyl)-4-pyridyl]phenyl]ethyl]amino]-2-ethyl-3H-pyrrolo[3,4-c]pyridin-1-one]
< 100	< 100	< 100	CCN1Cc2c(ccnc2N[C@@H](C)c2cc(F)c(-c3cc(C(C)(C)C)ncc3F)cc2F)C1=O [Compound 104, (S)-4-((1-(4-(2-(tert-butyl)-5-fluoropyridin-4-yl)-2,5-difluorophenyl)ethyl)amino)-2-ethyl-2,3-dihydro-1H-pyrrolo[3,4-c]pyridin-1-one]
< 100	< 100	< 100	CCN1Cc2c(ccnc2N[C@@H](C)c2cc(F)c(-c3ccnc(C(C)(C)C(F)(F)F)c3)cc2F)C1=O [Compound 105, (S)-4-((1-(2,5-difluoro-4-(2-(1,1,1-trifluoro-2-methylpropan-2-yl)pyridin-4-yl)phenyl)ethyl)amino)-2-ethyl-2,3-dihydro-1H-pyrrolo[3,4-c]pyridin-1-one]
